# Test results as given in patent US20130274237A1, “COMPOSITION INCLUDING CHLOROPHYLL A AS AN ACTIVE INGREDIENT FOR PREVENTING AND TREATING TH2-MEDIATED IMMUNOLOGICAL DISEASES” (GWANGJU INSTITUTE OF SCIENCE AND TECHNOLOGY, priority 2009, published 2013).
# Where “and” joins values, the source holds several entries; their conditions need not be identical. Identical values can stand only once.
# What was measured:
# [1] = Body weight of atopy-induced NC/Nga mice; conditions: DNCB atopy-induced NC/Nga mice; for body weight / body weight, group mean: 5 mg/kg oral daily
# Description: 20 fourteen-week old female NC/Nga mice (Central Lab. Animal Inc., Korea) with a body weight of about 20 g were used. The experimental animals were allowed to adapt for 7 days in the animal rooms before the experiment, and observed for general symptoms.
# A test solution prepared by dissolving a mixture consisting of acetone and olive oil in 3:1 ratio in dinitrochlorobenzene (DNCB) to a concentration of about 1% to about 0.2% was coated on the skin of the NC/Nga mice to induce atopic dermatitis.
# Body weight was measured twice from the time when the test material was administered.
# [2] = tested on: atopic dermatitis induced with DNCB in NC/Nga mice; experiment: Sensory evaluation (clinical visual skin score) in DNCB-induced atopic dermatitis; assay type: in vivo; design: key: total of five item scores, 0 = lowest, 15 = highest; conditions: scale 0-15; for Sensory Evaluation Score, group mean: mean of 5 mice; for Sensory Evaluation Score mean: mean of A and B; for Sensory Evaluation Score mean / Sensory Evaluation Score A / Sensory Evaluation Score B: individual mouse; for Sensory Evaluation Score A: scorer A; for Sensory Evaluation Score B: scorer B
# Experimental: Sensory evaluation was performed using the general clinical visual method. The result of visual evaluation was indicated in terms of the total score obtained by adding each of the evaluation scores for the five items shown in the below table. The scoring for the level of dermatitis was performed by two or more persons experienced in this experiment under mutual agreement. The score was set from “0” point, the lowest, to “15” point, the highest (Table 2).
# spleen = experiment: Measurement of spleen weight; assay type: in vivo, NC/Nga mice; conditions: for relative organ weight of spleen: group mean; for Absolute Comparison of Organs spleen wt. / Relative Comparison of Organs spleen: individual mouse; for Absolute Comparison of Organs spleen wt. mean S.D. / Relative Comparison of Organs spleen mean S.D.: mean of 5 mice
# Experimental: The spleen of a sacrificed animal was ablated, removed of fat, and then measured of its weight. When the absolute organ weight of the spleen was compared with that of the positive control group (0.2576±0.043 g), the weight was lower in the order of test drug chlorophyll a 1 mg/kg group (0.1188±0.023 g), chlorophyll a 5 mg/kg group (0.1276±0.011 g), and 5 mg/kg drug control group (0.1376±0.025 g), and all of them were of significance at p<0.05, but were lower than that of the negative control group (0.1734±0.021 g) (FIG. 6).
# [3] = tested on: skin tissues of atopy-induced NC/Nga mice; experiment: Histology: H & E biopsy score of skin; assay type: in vivo; conditions: for H & E biopsy score: group mean, acanthosis, hyperkeratosis, neutrophil infiltration, fibroblast hyperplasia, dermis each scored 1 to 3
# Experimental: 4-7) Histology (H & E, Toluidine Blue Stain) • d. Skin tissues were fixed in 10% formalin for at least 24 hours, prepared into paraffin blocks, cut into pieces in the size of 4 μm, dyed with hematoxylin & eosin (Sigma, USA), and then dyed again with toluidine blue (Sigma, USA) for more accurate identification of inflammatory cells.
# The evaluation standard for biopsy was calculated in an averaged score scale of 1 to 3 based on the status of acanthosis, hyperkeratosis, neutrophil infiltration, fibroblast hyperplasia, dermis, etc. […] Among them, a group treated with 1 mg/kg of chlorophyll a as a test drug was evaluated as being of significance (FIGS. 18-23).
# IgE (Immunoglobulin E) = experiment: IgE concentration in blood serum (ELISA); assay type: in vivo, NC/Nga mice; conditions: for IgE Average Concentration / IgE Group Average: blood serum; for IgE Average Concentration: individual specimen; for IgE Group Average: mean of 5 mice
# Experimental: The blood collected in a mouse was left at room temperature for 30 minutes and then centrifuged at 3000 rpm for 20 minutes. The blood serum obtained therefrom was analyzed via ELISA kit (Shibayagi, Japan).
smiles,measurement,setting,value
C=Cc1c(C)c2cc3nc(c4c5[n-]c(cc6nc(cc1[n-]2)C(C)=C6CC)c(C)c5C(=O)[C@@H]4C(=O)OC)[C@@H](CCC(=O)OC/C=C(\C)CCC[C@H](C)CCC[C@H](C)CCCC(C)C)[C@@H]3C.[Mg+2] [chlorophyll a],body weight,"[1]; day 5, individual mouse, 5 mg/kg",25.9 g and 30.8 g and 26.7 g and 29.3 g and 28 g
same,"body weight, group mean","[1]; day 5, mean of 5 mice",28.14 g
same,body weight,"[1]; day 7, individual mouse, 5 mg/kg",25.9 g and 30.6 g and 27.2 g and 30.2 g and 28.2 g
same,"body weight, group mean","[1]; day 7, mean of 5 mice",28.42 g
same,body weight,"[1]; day 9, individual mouse, 5 mg/kg",25.3 g and 30.6 g and 27.2 g and 29 g and 27 g
same,"body weight, group mean","[1]; day 9, mean of 5 mice",27.82 g
same,"body weight, group mean","[1]; day 11 (time of sacrifice), mean of 5 mice, 5 mg/kg",28.86 ± 2.033 g and 28.86 g
same,body weight,"[1]; day 11, individual mouse, 5 mg/kg",25.7 g and 31.3 g and 29.2 g and 29.5 g and 28.6 g
same,change in body weight by the administration,"[1]; oral administration, in words",no decrease
same,"Sensory Evaluation Score, group mean",[2]; 1 mg/kg oral daily,2.7±0.758 and 2.7
same,Sensory Evaluation Score mean,[2]; 1 mg/kg oral daily,1.5 and 3 (2×) and 3.5 and 2.5
same,Sensory Evaluation Score A,[2]; 1 mg/kg oral daily,2 (2×) and 3 (3×)
same,Sensory Evaluation Score B,[2]; 1 mg/kg oral daily,1 and 4 (2×) and 2 and 3
same,"Sensory Evaluation Score, group mean",[2]; 5 mg/kg oral daily,2.7±1.789 and 2.7
same,Sensory Evaluation Score mean,[2]; 5 mg/kg oral daily,5.5 and 1.5 (3×) and 3.5
same,Sensory Evaluation Score A,[2]; 5 mg/kg oral daily,5 and 2 (3×) and 3
same,Sensory Evaluation Score B,[2]; 5 mg/kg oral daily,6 and 1 (3×) and 4
same,relative organ weight of spleen,spleen; 1 mg/kg oral daily,0.418 ± 0.211 g
same,Absolute Comparison of Organs spleen wt.,spleen; 1 mg/kg oral daily,0.103 g and 0.114 g and 0.119 g and 0.1 g and 0.158 g
same,Relative Comparison of Organs spleen,spleen; 1 mg/kg oral daily,0.355 g/body wt. (100 g) and 0.394 g/body wt. (100 g) and 0.433 g/body wt. (100 g) and 0.370 g/body wt. (100 g) and 0.537 g/body wt. (100 g)
same,Absolute Comparison of Organs spleen wt. mean S.D.,spleen; 1 mg/kg oral daily,0.1188 ± 0.023 g
same,Relative Comparison of Organs spleen mean S.D.,spleen; 1 mg/kg oral daily,0.418 ± 0.073 g/body wt. (100 g)
same,relative organ weight of spleen,spleen; 5 mg/kg oral daily,0.446 ± 0.069 g
same,Absolute Comparison of Organs spleen wt.,spleen; 5 mg/kg oral daily,0.144 g and 0.12 g and 0.133 g and 0.122 g and 0.119 g
same,Relative Comparison of Organs spleen,spleen; 5 mg/kg oral daily,0.560 g/body wt. (100 g) and 0.383 g/body wt. (100 g) and 0.455 g/body wt. (100 g) and 0.414 g/body wt. (100 g) and 0.416 g/body wt. (100 g)
same,Absolute Comparison of Organs spleen wt. mean S.D.,spleen; 5 mg/kg oral daily,0.1276 ± 0.011 g
same,Relative Comparison of Organs spleen mean S.D.,spleen; 5 mg/kg oral daily,0.446 ± 0.069 g/body wt. (100 g)
same,absolute organ weight and relative organ weight of spleen compared with the negative control group,"spleen; in words, dose not split",only a little difference
same,H & E biopsy score,[3]; 1 mg/kg oral daily,4.6±0.55
same,tissue H&E reading: improvement in atopy symptom,"[3]; 1 mg/kg oral daily, in words",the most improvement
same,H & E biopsy score,[3]; 5 mg/kg oral daily,5±1.58
same,IgE Average Concentration,"IgE (Immunoglobulin E); 1 mg/kg oral daily, 1 mg/kg",104.198 ng/mL and 106.557 ng/mL and 166.675 ng/mL and 119.515 ng/mL and 149.499 ng/mL
same,IgE Group Average,"IgE (Immunoglobulin E); 1 mg/kg oral daily, 1 mg/kg",121.76 ± 15.58 ng/mL and 129.29 ± 27.60 ng/mL
same,IgE Average Concentration,"IgE (Immunoglobulin E); 5 mg/kg oral daily, 5 mg/kg",108.757 ng/mL and 115.652 ng/mL and 129.408 ng/mL and 88.578 ng/mL and 104.912 ng/mL
same,IgE Group Average,"IgE (Immunoglobulin E); 5 mg/kg oral daily, 5 mg/kg",109.46 ± 14.95 ng/mL
same,value of IgE,"IgE (Immunoglobulin E); in words, dose not split",decreased
